{"source": "patent US20160271248A1", "about": "“CXCR4 UP- AND DOWN-REGULATION FOR TREATMENT OF DISEASES OR DISORDERS” (priority 2013, published 2016)", "key": {"[1]": {"test_system": "layer II/III pyramidal neurons of the prefrontal cortex", "experiment": "In vivo dendritic spine analysis (Golgi stain, Neurolucida)", "set-up": "species or system rat"}, "FHC": {"test_system": "FHC", "experiment": "Neuronal FHC protein levels by Western blot in cultured cortical neurons", "type": "cell-based, rat", "experimental": "Rat cortical neurons were cultured in the presence of a glial feeder layer, using the bilaminar cell culture model. Due to the presence of glia this culture system largely preserves the in vivo mechanisms of neuronal growth and differentiation, but also allows for direct studies on neurons, which were separated from glia at the time of analysis. Selected experiments were performed using glia-free neuronal cultures, as noted, using previously described protocols (Sengupta et al., 2009, J. Neurosci. 29:2534-2544). Neurons were transfected at the time of plating by Nucleofection (Amaxa), or after 8 days in culture by lipofectamine (Invitrogen). All experiments were conducted at 21 DIV, unless otherwise noted. HDAC4 and control (scrambled) siRNA were obtained from Ambion (s170677 and 4390843), and FHC/scrambled shRNA from GenScript (custom order; shRNA vector also expressed GFP).\nProtease and phosphatases inhibitors were added to both buffers.\nRat cortical neurons were cultured in serum-free media in the presence of a glial feeder layer (Shimizu, et al., 2011, J. Vis. Exp. 57). This culture system largely preserves the in vivo environment, due to the presence of glia; however, it still enables direct investigation of neurons that can be separated by the glia before experiments. Selected studies were also performed in neurons grown in the absence of glia for the entire culture period, as indicated (Sengupta, et al., 2009, J. Neurosci. 29(8):2534-44). All experiments were conducted between 8-13 days in vitro (DIV).\nTotal protein extracts were obtained using standard protocols. […] The following antibodies were used: anti-FHC (3998, Cell Signaling Technology, 1:1,000) and anti-β-actin (A2066, Sigma-Aldrich, 1:5,000)."}, "IL-1β": {"test_system": "IL-1β", "experiment": "ELISA of secreted IL-1β in neuronal/glial co-cultures", "type": "cell-based, rat", "settings": "200 pM for 24 hours; vs controls", "experimental": "(§1) TNF-α and IL-1β secreted protein levels were determined from co-culture supernatants using commercially available rat TNF-α and IL-1β kits (Quantikine, R&D Systems). The assays were performed following the manufacturer's instructions. Absorbance was read at 450 nm using Wallac Victor2 1420 Multilabel Counter (PerkinElmer). The concentration of secreted TNF-α and IL-1β are expressed as picograms per milliliter (pg/mL); values were normalized to total protein content for each well."}, "TNF-α": {"test_system": "TNF-α", "experiment": "ELISA of secreted TNF-α in neuronal/glial co-cultures", "type": "cell-based, rat", "settings": "200 pM for 24 hours; vs controls", "experimental": "as §1"}, "[2]": {"experiment": "Attention set-shifting task after gp120 infusions", "type": "in vivo, rat", "settings": "SD rats, vs BSA", "experimental": "Rats (200-400 g, male Sprague-Dawley, Taconic Farms) were stereotaxically implanted, under isoflurane anesthesia, with stainless-steel cannulas placed 0.96 mm posterior and 3.18 mm lateral to bregma, 3.47 mm below the surface of the cranium at an angle of 22°. Four stainless-steel screws (#0-80) were placed around the cannula and acrylic dental cement was used to anchor the cannula. Animals were allowed seven days to recover before receiving a bilateral infusion of 1 μl of gp120IIIB (50 ng/μl) once daily for seven days via a 10 microliter Hamilton Syringe, needle diameter 0.48 mm; infusion rate=0.374 microliters/minute. Animals were food restricted and began behavioral testing 21 days following the final infusion.\nAnimals were tested in an attention set-shifting task (Birrell & Brown, 2000, J. Neurosci. 20(11); 4320-4324). On day 1 of testing, food restricted rats are habituated to the testing chamber for 20 minutes. The testing chamber (17″×22″×10″ H) is divided lengthwise by a plexiglass wall with a guillotine-style door creating a waiting area (one-third of the chamber), and a testing area (remaining two-thirds of the chamber). The far wall of the testing area (furthest from the waiting area) is bisected by a plexiglass divider that extended 9.25 inches; thus creating two distinct yet easily accessible sides of the testing area. The following day, rats are trained to dig in terra cotta pots to obtain a food reward (Frosted Cheerio). The food reward is progressively buried deeper in the pots, filled with corn cob bedding, until the rat reliably digs to retrieve the food reward. On day 3, rats undergo exemplar training, discriminating between sensory cues to determine which pot contains the food reward. […] If the rat begins digging in the incorrect pot, the pots are removed from the testing area, the rat is placed back into the waiting area, and the trial is recorded as incorrect. […]"}}}
{"substance": "gp120IIIB: X4-using HIV-1 envelope protein gp120, from Immunodiagnostics", "values": [{"measurement": "average dendrite length", "setting": "[1]; gp120-treated rats vs BSA", "result": "no changes in the average dendrite length"}, {"measurement": "number of branching points", "setting": "[1]; gp120-treated rats vs BSA", "result": "reduced number of branching points"}, {"measurement": "spine density", "setting": "[1]; gp120IIIB 50 ng/μl, 1 μl bilateral infusion once daily for seven days, vs BSA", "result": "reduction of spine density in layer II/III PFC neurons"}, {"measurement": "neuronal expression of FHC", "setting": "FHC; in the presence of glial feeder layer, 200 pM, up to 24 hr", "result": "able to increase neuronal expression of FHC"}, {"measurement": "neuronal FHC protein levels", "setting": "FHC; pure neuronal cultures, 200 pM for 3, 6, or 24 hours", "result": "only transiently increased FHC"}, {"measurement": "secreted IL-1β levels in culture media", "setting": "IL-1β", "result": "significantly higher"}, {"measurement": "secreted TNF-α levels in culture media", "setting": "TNF-α", "result": "significantly higher"}, {"measurement": "attention set-shifting performance", "setting": "[2]; testing 21 days after final infusion", "result": "impaired attention set-shifting performance"}, {"measurement": "extra-dimensional shifts", "setting": "[2]", "result": "impaired in extra-dimensional shifts"}, {"measurement": "reversal learning (Reversal 2, Reversal 3)", "setting": "[2]", "result": "impaired in the reversal learning component of the task"}]}
